Data reported in BindingDB's records for doi:10.1021/acs.jmedchem.0c00337 (Peking Union Medical College, 2020).
pEC50, pIC50: −log10 of the molar value.

Experiments:
[1] = Reversal of Pgp-mediated DOX resistance in human SW620/AD300 cells assessed as potentiation of DOX-induced cytotoxicity by measuring DOX IC50 at 1 uM incubated for 48 hrs by SRB assay (Rvb = 33.39 +/- 7.08 uM)
[2] = Reversal of Pgp-mediated DOX resistance in human SW620/AD300 cells assessed as concentration required to show half of DOX IC50 incubated for 48 hrs by SRB assay

SMILES | pIC50 [1] | pEC50 [2]
COc1cc2c(cc1OC)CN(CCc1ccc(NC(=O)/C=C/c3ccc(Oc4ccc(-c5cccnc5)cc4)nc3)cc1)CC2 | 6.41 | 6.99
COc1cc2c(cc1OC)CN(CCc1ccc(NC(=O)/C=C/c3cccc(Oc4ccc(-c5ccccn5)cc4)n3)cc1)CC2 | 6.00 | –
COc1cc2c(cc1OC)CN(CCc1ccc(NC(=O)/C=C/c3ccc(Oc4ccc(-c5ccccn5)c(O)c4)nc3)cc1)CC2 | 6.09 | –
COc1cc2c(cc1OC)CN(CCc1ccc(NC(=O)/C=C/c3cc(-c4ccccn4)cc(C)c3Oc3ccccn3)cc1)CC2 | 6.26 | –
COc1ccc2c(C)c(CC(=O)Nc3ccc(CCN4CCc5cc(OC)c(OC)cc5C4)cc3)c(=O)oc2c1 | 5.71 | –
COc1cc2c(cc1OC)CN(CCc1ccc(NC(=O)/C=C/c3ccc(Oc4c(I)cc(-c5ccccn5)cc4I)nc3)cc1)CC2 | 5.93 | –
COc1cc2c(cc1OC)CN(CCc1ccc(NC(=O)/C=C/c3c(-c4ccccc4)n(C)c4ncccc34)cc1)CC2 | 6.09 | –
COc1cc2c(cc1OC)CN(CCc1ccc(NC(=O)/C=C/c3ccc(Oc4ccc(-c5ccccn5)c(C#N)c4)nc3)cc1)CC2 | 6.21 | 7.29
COc1cc2c(cc1OC)CN(CCc1ccc(NC(=O)/C=C/c3ccc(Oc4ccc(-c5ccccn5)c(C)c4)nc3)cc1)CC2 | 6.31 | –
COc1cc2c(cc1OC)CN(CCc1ccc(NC(=O)C3CC3c3ccc(Oc4ccc(-c5ccccn5)cc4)nc3)cc1)CC2 (configuration not stated) | 6.12 | –
COc1cc2c(cc1OC)CN(CCc1ccc(NC(=O)C(c3c(-c4ccccc4)n(C)c4ccccc34)N3CCOCC3)cc1)CC2 (configuration not stated) | 6.26 | –
COc1cc2c(cc1OC)CN(CCc1ccc(NC(=O)C(O)c3c(-c4ccccc4)n(C)c4ccccc34)cc1)CC2 (configuration not stated) | 5.96 | –
COc1cc2c(cc1OC)CN(CCc1ccc(NC(=O)/C=C/c3ccc(Oc4ccc(-c5ccccn5)c(Cl)c4)nc3)cc1)CC2 | 6.25 | 7.43
COc1cc2c(cc1OC)CN(CCc1ccc(NC(=O)/C=C/c3ccc(Oc4ccc(-c5ccccn5)cc4I)nc3)cc1)CC2 | 6.12 | –
COc1cc2c(cc1OC)CN(CCc1ccc(NC(=O)/C=C/c3ccc(Oc4cc(O)c(-c5ccccn5)c(O)c4)nc3)cc1)CC2 | 6.11 | –
COc1cc2c(cc1OC)CN(CCc1ccc(NC(=O)/C=C/c3c(-c4ccccc4)oc4ccccc4c3=O)cc1)CC2 | 5.87 | –
COc1cc2c(cc1OC)CN(CCc1ccc(NC(=O)/C=C/c3ccc(Oc4cccc(-c5ccccn5)c4)nc3)cc1)CC2 | 6.12 | –
COc1cc2c(cc1OC)CN(CCc1ccc(NC(=O)/C=C/c3ccc(Oc4ccc(-c5ccccn5)cc4Br)nc3)cc1)CC2 | 6.15 | –
COc1cc2c(cc1OC)CN(CCc1ccc(NC(=O)/C=C/c3ccc(Oc4ccc(-c5ccccn5)cc4C)nc3)cc1)CC2 | 6.13 | –
